Results: US5276049A, “Cyclic urea derivatives, pharmaceutical compositions containing these compounds and methods of using the same” (Dr. Karl Thomae GmbH, priority 1991, dated 1994)
Counter-ions that a name gives are not always drawn.

Assays:
[1] = system: collagen-induced thrombocyte aggregation; assay: Collagen-induced thrombocyte aggregation ex vivo after oral administration; format: in vivo; settings: Rhesus monkeys, 1 mg/kg
Human Thrombocytes = assay: Fibrinogen Binding to Human Thrombocytes (I125-fibrinogen, gel-filtered platelets); settings: inhibition of I125-fibrinogen binding to gel-filtered human platelets, ADP, 20 minutes, ambient temperature; read-out: Fibrinogen Binding test IC50
Summary of the method: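 Gel-filtered human platelets (from citrated PRP, pH 7.4 Tris/citrate/glucose buffer) incubated 20 min at ambient temperature with test compound, CaCl2, ADP and I125-fibrinogen; non-specific binding with 3 mg/ml cold fibrinogen. Platelets spun through silicone oil, bound fibrinogen gamma-counted; IC50 from a concentration series.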

[2] = system: thrombocyte aggregation in platelet-rich plasma; assay: Antithrombotic effect: collagen-induced thrombocyte aggregation in platelet-rich plasma (Born and Cross); format: cell-based; settings: human platelet-rich plasma, 10 minutes preincubation at 37° C., read-out: Inhibition of platelet aggregation EC50
Summary of the method: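 Human platelet-rich plasma (citrated 1:10, 3.14%) incubated with compound 10 min at 37 °C, then aggregation triggered by minimal collagen giving irreversible response. Optical density change tracked photometrically (Born and Cross); EC50 determined graphically as 50% inhibition of optical density change.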

mice = settings: mouse, in vivo, 30 mg/kg

Row | SMILES | duration of inhibition of collagen-induced thrombocyte aggregation ex vivo [1] | IC50 (Human Thrombocytes) [nM] | EC50 [2] [nM] | sedation (mice) | death of animals after intravenous administration (mice; iv)
1 | COC(=O)NC(=N)c1ccc(-n2nc(C)n(-c3ccc(CCC(=O)OCC(C)C)cc3)c2=O)cc1 [Example 5(18), 4-[4-(2-isobutyloxycarbonyl-ethyl)-phenyl]-2-(4-methoxycarbonylamidino-phenyl)-5-methyl-4H-1,2,4-triazol-3-one] | up to 8 hours | > 10000 | 8060 |  | 
2 | Cc1nn(-c2ccc(C(=N)N)cc2)c(=O)n1-c1ccc(CCC(=O)O)cc1 [1(139), 2-(4-amidino-phenyl)-4-[4-(2-carboxy-ethyl)-phenyl]-5-methyl-4H-1,2,4-triazol-3-one] |  | 6.8 | 30 | one animal was sedated | 
3 | N=C(N)c1ccc(N2CCN(c3ccc(CCC(=O)O)cc3)S2(=O)=O)cc1 [1(66), 2-(4-amidino-phenyl)-5-[4-(2-carboxy-ethyl)-phenyl]-3,4-dihydro-2H,5H-1,2,5-thiadiazole-1,1-dioxide] |  | 9.1 | 50 | one animal was sedated | 
4 | Cc1cn(-c2ccc(C(=N)N)cc2)c(=O)n1-c1ccc(CCC(=O)O)cc1 [Example 1(138), 1-(4-amidino-phenyl)-3-[4-(2-carboxy-ethyl)-phenyl]-4-methyl-3H-imidazol-2-one] |  | 21 | 40 |  | did not lead to the death of any of the three animals tested
5 | COC(=O)CCc1ccc(-n2c(C)cn(-c3ccc(C(=N)N)cc3)c2=O)cc1 [2(115), 1-(4-amidino-phenyl)-3-[4-(2-methoxycarbonyl-ethyl)-phenyl]-4-methyl-3H-imidazol-2-one hydrochloride] |  | 530 | 80 |  | 
6 | N=C(N)c1ccc(-c2ccc(N3CCN(CCC(=O)O)S3(=O)=O)cc2)cc1 [1(21), 2-(4'-amidino-4-biphenylyl)-5-(2-carboxy-ethyl)-3,4-dihydro-2H,5H-1,2,5-thiadiazol-1,1-dioxide] |  | 31 | 620 |  | 
7 | COC(=O)CCn1cc(-c2ccc(-c3ccc(C(=N)N)cc3)cc2)n(C)c1=O [2(105), 4-(4'-amidino-4-biphenylyl)-1-(2-methoxycarbonyl-ethyl)-3-methyl-3H-imidazol-2-one hydrochloride] |  | 28000 | 1100 |  | 
8 | N=C(N)c1ccc(-c2ccc(N3CCN(CCC(=O)O)C3=O)nn2)cc1 [1(28), 1-[6-(4-amidino-phenyl)-3-pyridazinyl]-3-(2-carboxy-ethyl)-imidazolidin-2-one] |  | 52 | 390 |  | 
9 | COC(=O)CCc1ccc(N2CCN(c3ccc(CN)cc3C)C2=O)cc1 [8(5), 1-(4-aminomethyl-2-methyl-phenyl)-3-[4-(2-methoxycarbonyl-ethyl)-phenyl]-imidazolidin-2-one] |  | 3000 | 5900 |  | 
10 | N=C(N)c1ccc(-n2ccn(-c3ccc(CCC(=O)O)cc3)c2=O)cc1 [1(67), 1-(4-amidino-phenyl)-3-[4-(2-carboxy-ethyl)-phenyl]-3H-imidazol-2-one] |  | 30 | 60 |  | 
